Test results: article PMC11124362, “Metabolism, Disposition, Excretion, and Potential Transporter Inhibition of 7–16, an Improving 5-HT2A Receptor Antagonist and Inverse Agonist for Parkinson’s Disease” (Molecules, 2024)

What was measured:
[1] = molecular target: T1, OATP1B3 (Homo sapiens, UniProt Q9NPD5)
T1 sequence (Q9NPD5 1-702): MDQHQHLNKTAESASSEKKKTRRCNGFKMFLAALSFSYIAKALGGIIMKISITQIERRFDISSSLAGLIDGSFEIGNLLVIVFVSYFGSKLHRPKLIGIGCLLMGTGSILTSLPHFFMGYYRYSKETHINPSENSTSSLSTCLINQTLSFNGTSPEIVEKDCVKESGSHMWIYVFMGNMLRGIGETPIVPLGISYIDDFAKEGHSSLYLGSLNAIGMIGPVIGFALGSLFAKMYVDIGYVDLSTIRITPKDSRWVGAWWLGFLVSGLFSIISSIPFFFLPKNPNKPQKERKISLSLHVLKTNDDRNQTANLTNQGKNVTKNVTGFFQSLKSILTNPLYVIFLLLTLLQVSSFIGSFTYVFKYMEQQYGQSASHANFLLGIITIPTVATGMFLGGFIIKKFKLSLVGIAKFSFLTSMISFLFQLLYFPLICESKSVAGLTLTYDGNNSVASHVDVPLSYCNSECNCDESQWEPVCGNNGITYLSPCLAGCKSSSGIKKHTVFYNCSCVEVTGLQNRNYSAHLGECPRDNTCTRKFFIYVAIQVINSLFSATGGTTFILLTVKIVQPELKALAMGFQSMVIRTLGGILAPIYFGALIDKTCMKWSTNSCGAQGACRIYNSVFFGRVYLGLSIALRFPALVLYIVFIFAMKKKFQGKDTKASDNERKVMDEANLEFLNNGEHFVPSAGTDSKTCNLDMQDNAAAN

[2] = tested on: CYP3A4; set-up: method as in PMID 35279606; settings: previous study; read-out: CYP3A4 inhibition IC50; cited from earlier work
[3] = tested on: CYP2D6; set-up: method as in PMID 35279606; settings: previous study; read-out: CYP2D6 inhibition IC50; cited from earlier work
[4] = tested on: CYP2C19; set-up: method as in PMID 35279606; settings: previous study; read-out: CYP2C19 inhibition IC50; cited from earlier work
[5] = tested on: CYP2B6; test: Metabolic phenotype by rhCYP isozymes, CYP2B6; assay type: in vitro ADME, human; settings: 7–16 1 µM
Protocol: (§1) Based on the result of metabolite identification, two metabolites were selected as targets for metabolic phenotyping analysis. Seven CYP isozymes (CYP1A2, CYP2B6, CYP2C8, CYP2C9, CYP2C19, CYP2D6, and CYP3A4) were investigated using the rhCYP isozymes method. In brief, 7–16 (1 µΜ) was incubated with each rhCYP isozyme ([…]) in 100 mM sodium phosphate buffer (pH 7.4) containing 3 mM magnesium chloride. After 10 min of preincubation at 37 °C, the reactions were initiated by adding NADPH (1 mM) and then incubated at 37 °C in a shaking water bath for 0, 5, 15, and 30 min. The specific substrates of each rhCYP isozyme were incubated as the above method to confirm the activity of the incubation system. The samples were prepared in triplicates. The reactions were terminated by adding three times the volume of ice-cold acetonitrile (600 µL) and stored at −20 °C until analysis. After pre-treatment, the samples were determined by the LC–MS/MS (Shimadzu Exion-Triple Quad 4500) method. The relative contribution rate of each isozyme to the metabolism of 7–16 was evaluated in HLMs using the following formula: Contributionx% = Vx × Abundancex (pmol/mg protein)/Σ(Vi × Abundancei). Vx (µL/min/pmol) is the production rate of metabolites for each rhCYP isozyme.

[6] = tested on: CYP2C9; test: Metabolic phenotype by rhCYP isozymes, CYP2C9; assay type: in vitro ADME, human; settings: 7–16 1 µM
Protocol: as §1

[7] = molecular target: T2, OAT1 (Homo sapiens, UniProt Q4U2R8); test: OAT1 inhibitor assay in HEK293 cells; assay type: in vitro ADME; settings: substrate p-Aminohippurate, read-out: Inhibition IC50, OAT1
T2 construct: host or cells: HEK293
T2 sequence (Q4U2R8 1-563): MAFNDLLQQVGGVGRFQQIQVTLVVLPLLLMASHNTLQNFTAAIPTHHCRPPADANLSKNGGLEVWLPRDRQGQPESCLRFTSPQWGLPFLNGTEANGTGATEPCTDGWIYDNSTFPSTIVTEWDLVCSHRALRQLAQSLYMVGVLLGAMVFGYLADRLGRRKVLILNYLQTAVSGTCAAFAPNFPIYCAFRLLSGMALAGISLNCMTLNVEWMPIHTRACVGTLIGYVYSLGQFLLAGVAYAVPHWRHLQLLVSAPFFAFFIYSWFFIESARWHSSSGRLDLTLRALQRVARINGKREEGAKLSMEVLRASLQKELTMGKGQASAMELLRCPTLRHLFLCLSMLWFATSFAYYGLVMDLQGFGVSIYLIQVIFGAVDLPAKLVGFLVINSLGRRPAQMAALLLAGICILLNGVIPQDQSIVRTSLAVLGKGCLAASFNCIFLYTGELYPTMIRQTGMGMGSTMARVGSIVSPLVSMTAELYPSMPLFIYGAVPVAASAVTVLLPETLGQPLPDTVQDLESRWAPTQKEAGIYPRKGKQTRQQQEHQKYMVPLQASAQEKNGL

CN1CCC(N(Cc2ccc(F)cn2)C(=O)NCc2ccc(OCC(F)(F)F)cc2)CC1 [7–16, 3-(4-(2,2,2-trifluoroethoxy)benzyl)-1-((5-fluoropyridin-2-yl)methyl)-1-(1-methylpiperidin-4-yl) urea]
IC50 [1]: 89.5 µM | IC50 [2]: > 62.9 µM | IC50 [3]: > 62.9 µM | IC50 [4]: > 62.9 µM | relative contribution of CYP2B6 to metabolism [5]: little or no contribution | relative contribution of CYP2C9 to metabolism [6]: little or no contribution | IC50 [7]: > 100 µM
